Assay results as given in ChEMBL document CHEMBL1135966, “New synthetic analogues of N-acyl homoserine lactones as agonists or antagonists of transcriptional regulators involved in bacterial quorum sensing” (Bioorg Med Chem Lett, 2002).

The compounds below were run on Aliivibrio fischeri (assay: Concentration required for 50% inhibition of 3-oxo-C6-HSL-induced luminescence of the biosensor strain).

Structure (SMILES)	IC50 [nM]
O=C(CCCC1CCCCC1)NC1CCOC1=O (centres undefined)	> 6000
COc1ccc(CC(=O)CC(=O)NC2CCOC2=O)cc1 (centres undefined)	3000
CCCCCC(=O)NC1CCOC1=O (centres undefined)	> 9000
O=C(CSCc1ccccc1)NC1CCOC1=O (centres undefined)	2000
O=C(COCc1ccccc1)NC1CCOC1=O (centres undefined)	3000
O=C(CCCc1ccccc1)NC1CCOC1=O (centres undefined)	2000
O=C(CC(=O)NC1CCOC1=O)Cc1ccccc1Cl (centres undefined)	6000
O=C(CC(=O)NC1CCOC1=O)Cc1ccc(F)cc1 (centres undefined)	4000
CCCC(=O)CC(=O)NC1CCOC1=O (centres undefined)	200
O=C(CC(=O)NC1CCOC1=O)Cc1ccc(Cl)cc1 (centres undefined)	3000
O=C(CC(=O)NC1CCOC1=O)Cc1ccccc1 (centres undefined)	2000
O=C(CC(=O)NC1CCOC1=O)Cc1ccc(Br)cc1 (centres undefined)	2000
CC(C)CC(=O)CC(=O)NC1CCOC1=O (centres undefined)	500
CC(C)(C)CC(=O)CC(=O)NC1CCOC1=O (centres undefined)	15000
O=C(CC(=O)NC1CCOC1=O)CC1CCCCC1 (centres undefined)	1100
O=C(CC(=O)NC1CCOC1=O)Cc1cccc(Cl)c1 (centres undefined)	4000
Cc1ccc(CC(=O)CC(=O)NC2CCOC2=O)cc1 (centres undefined)	4000
O=C(CC(=O)NC1CCOC1=O)Cc1ccc(C(F)(F)F)cc1 (centres undefined)	10000
O=C(CC(=O)NC1CCOC1=O)CC1CCCC1 (centres undefined)	250
